# Assays:
# Format in all cases: in vivo
# barnyardgrass [1] = assay: Test Example 1: herbicidal effects in preemergence treatment under submerged conditions; details: dose 2.52 g/a
# Outline: (§1)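 Scoring 0 (<5% mortality) to 5 (≥90%) was done three weeks after preemergence application to the water surface of submerged (4 cm) alluvial soil, doses given as g per are. Weeds were seeded and 2.5-leaf rice transplanted on the treatment day; greenhouse at 25–30 °C.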
# bulrush [2] = assay: as above; details: dose 2.52 g/a
# Outline: as §1
# ducksalad [3] = assay: as above; details: dose 2.52 g/a
# Outline: as §1
# barnyardgrass [4] = assay: Test Example 2: herbicidal effects during the vegetation period under submerged conditions; details: treatment during the vegetation period under submerged conditions; dose 2.52 g/a
# Outline: (§2)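 Barnyardgrass, bulrush and ducksalad were co-sown in alluvial soil flooded to 4 cm and grown in a greenhouse at 25 to 30° C. At the 1- or 2-leaf stage, water-diluted emulsifiable concentrates went onto the water surface at set doses (g/a). Herbicidal effect was scored three weeks later on a graded scale.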
# bulrush [5] = assay: as above; details: treatment during the vegetation period under submerged conditions; dose 2.52 g/a
# Outline: as §2
# ducksalad [6] = assay: as above; details: treatment during the vegetation period under submerged conditions; dose 2.52 g/a
# Outline: as §2
# Italian ryegrass [7] = assay: Test Example 3: herbicidal effects in soil treatment; details: dose 6.3 g/a
# Outline: (§3)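 Seeds were sown in sterilized diluvial soil and covered with about 1.5 cm of soil. Compounds, formulated as emulsifiable concentrates and diluted with water, were sprayed evenly over the soil surface at set doses in g/a. Herbicidal effect was scored on a rating scale three weeks later.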
# barnyardgrass [8] = assay: as above; details: dose 6.3 g/a
# Outline: as §3
# common chickweed [9] = assay: as above; details: dose 6.3 g/a
# Outline: as §3
# common lambsquater [10] = assay: as above; details: dose 6.3 g/a
# Outline: as §3
# common ragweed [11] = assay: as above; details: dose 6.3 g/a
# Outline: as §3
# giant foxtail [12] = assay: as above; details: dose 6.3 g/a
# Outline: as §3
# large crabgrass [13] = assay: as above; details: dose 6.3 g/a
# Outline: as §3
# redroot pigweed [14] = assay: as above; details: dose 6.3 g/a
# Outline: as §3
# water foxtail [15] = assay: as above; details: dose 6.3 g/a
# Outline: as §3
# wild oat [16] = assay: as above; details: dose 6.3 g/a
# Outline: as §3
# Italian ryegrass [17] = assay: Test Example 4: herbicidal effect in foliage treatment; details: dose 6.3 g/a
# Outline: (§4)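 Weeds and crops sown in sterilized diluvial soil under ~1.5 cm cover and grown in greenhouse at 25 to 30° C. At 14 days, water-diluted emulsifiable concentrate sprayed onto foliage at set doses (g/a); herbicidal effect scored on a rating scale three weeks after application.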
# barnyardgrass [18] = assay: as above; details: dose 6.3 g/a
# Outline: as §4
# beadstraw = assay: as above; details: dose 6.3 g/a
# Outline: as §4
# common chickweed [19] = assay: as above; details: dose 6.3 g/a
# Outline: as §4
# common lambsquater [20] = assay: as above; details: dose 6.3 g/a
# Outline: as §4
# common ragweed [21] = assay: as above; details: dose 6.3 g/a
# Outline: as §4
# giant foxtail [22] = assay: as above; details: dose 6.3 g/a
# Outline: as §4
# large crabgrass [23] = assay: as above; details: dose 6.3 g/a
# Outline: as §4
# redroot pigweed [24] = assay: as above; details: dose 6.3 g/a
# Outline: as §4
# water foxtail [25] = assay: as above; details: dose 6.3 g/a
# Outline: as §4
# wild oat [26] = assay: as above; details: dose 6.3 g/a
# Outline: as §4
# [27] = three weeks after the application
structure (smiles),measurement,setting,value
O=C1CCOCCN1Cc1ccccc1NS(=O)(=O)C(F)(F)F [Compound V-1],"A: barnyardgrass, herbicidal effect (evaluation scale 0-5)",barnyardgrass [1],5 (mortality of 90% or above (nearly complete death))
same,"B: bulrush, herbicidal effect (evaluation scale 0-5)",bulrush [2],5 (mortality of 90% or above (nearly complete death))
same,"C: ducksalad, herbicidal effect (evaluation scale 0-5)",ducksalad [3],5 (mortality of 90% or above (nearly complete death))
same,"A: barnyardgrass, herbicidal effect (evaluation scale 0-5)",barnyardgrass [4],5 (mortality of 90% or above (nearly complete death))
same,"B: bulrush, herbicidal effect (evaluation scale 0-5)",bulrush [5],5 (mortality of 90% or above (nearly complete death))
same,"C: ducksalad, herbicidal effect (evaluation scale 0-5)",ducksalad [6],5 (mortality of 90% or above (nearly complete death))
same,"herbicidal effect, H: Italian ryegrass",Italian ryegrass [7],3 (mortality of at least 40% and less than 70%)
same,"herbicidal effect, A: barnyardgrass",barnyardgrass [8],5 (mortality of 90% or above (nearly complete death))
same,"herbicidal effect, N: common chickweed",common chickweed [9],5 (mortality of 90% or above (nearly complete death))
same,"herbicidal effect, L: common lambsquater",common lambsquater [10],5 (mortality of 90% or above (nearly complete death))
same,"herbicidal effect, J: common ragweed",common ragweed [11],5 (mortality of 90% or above (nearly complete death))
same,"herbicidal effect, E: giant foxtail",giant foxtail [12],4 (mortality of at least 70% and less than 90%)
same,"herbicidal effect, D: large crabgrass",large crabgrass [13],0 (mortality of less than 5% (almost ineffective))
same,"herbicidal effect, K: redroot pigweed",redroot pigweed [14],4 (mortality of at least 70% and less than 90%)
same,"herbicidal effect, G: water foxtail",water foxtail [15],5 (mortality of 90% or above (nearly complete death))
same,"herbicidal effect, F: wild oat",wild oat [16],3 (mortality of at least 40% and less than 70%)
same,"H: Italian ryegrass, herbicidal effect",Italian ryegrass [17]; [27],3 (mortality of at least 40% and less than 70%)
same,"A: barnyardgrass, herbicidal effect",barnyardgrass [18]; [27],5 (mortality of 90% or above (nearly complete death))
same,"O: beadstraw, herbicidal effect",beadstraw; [27],4 (mortality of at least 70% and less than 90%)
same,"N: common chickweed, herbicidal effect",common chickweed [19]; [27],4 (mortality of at least 70% and less than 90%)
same,"L: common lambsquater, herbicidal effect",common lambsquater [20]; [27],4 (mortality of at least 70% and less than 90%)
same,"J: common ragweed, herbicidal effect",common ragweed [21]; [27],5 (mortality of 90% or above (nearly complete death))
same,"E: giant foxtail, herbicidal effect",giant foxtail [22]; [27],5 (mortality of 90% or above (nearly complete death))
same,"D: large crabgrass, herbicidal effect",large crabgrass [23]; [27],4 (mortality of at least 70% and less than 90%)
same,"K: redroot pigweed, herbicidal effect",redroot pigweed [24]; [27],1 (mortality of at least 5% and less than 20%)
same,"G: water foxtail, herbicidal effect",water foxtail [25]; [27],5 (mortality of 90% or above (nearly complete death))
same,"F: wild oat, herbicidal effect",wild oat [26]; [27],0 (mortality of less than 5% (almost ineffective))
CCC(=O)N(c1ccccc1CN1COC(C)CC1=O)S(=O)(=O)C(F)(F)F (stereo not drawn) [II-5],"A: barnyardgrass, herbicidal effect (evaluation scale 0-5)",barnyardgrass [1],5 (mortality of 90% or above (nearly complete death))
same,"B: bulrush, herbicidal effect (evaluation scale 0-5)",bulrush [2],5 (mortality of 90% or above (nearly complete death))
same,"C: ducksalad, herbicidal effect (evaluation scale 0-5)",ducksalad [3],5 (mortality of 90% or above (nearly complete death))
same,"A: barnyardgrass, herbicidal effect (evaluation scale 0-5)",barnyardgrass [4],5 (mortality of 90% or above (nearly complete death))
same,"B: bulrush, herbicidal effect (evaluation scale 0-5)",bulrush [5],5 (mortality of 90% or above (nearly complete death))
same,"C: ducksalad, herbicidal effect (evaluation scale 0-5)",ducksalad [6],5 (mortality of 90% or above (nearly complete death))
same,"H: Italian ryegrass, herbicidal effect (evaluation scale 0-5)",Italian ryegrass [7],4 (mortality of at least 70% and less than 90%)
same,"A: barnyardgrass, herbicidal effect (evaluation scale 0-5)",barnyardgrass [8],5 (mortality of 90% or above (nearly complete death))
same,"N: common chickweed, herbicidal effect (evaluation scale 0-5)",common chickweed [9],5 (mortality of 90% or above (nearly complete death))
same,"L: common lambsquater, herbicidal effect (evaluation scale 0-5)",common lambsquater [10],4 (mortality of at least 70% and less than 90%)
same,"J: common ragweed, herbicidal effect (evaluation scale 0-5)",common ragweed [11],4 (mortality of at least 70% and less than 90%)
same,"E: giant foxtail, herbicidal effect (evaluation scale 0-5)",giant foxtail [12],3 (mortality of at least 40% and less than 70%)
same,"D: large crabgrass, herbicidal effect (evaluation scale 0-5)",large crabgrass [13],5 (mortality of 90% or above (nearly complete death))
same,"K: redroot pigweed, herbicidal effect (evaluation scale 0-5)",redroot pigweed [14],1 (mortality of at least 5% and less than 20%)
same,"G: water foxtail, herbicidal effect (evaluation scale 0-5)",water foxtail [15],5 (mortality of 90% or above (nearly complete death))
same,"F: wild oat, herbicidal effect (evaluation scale 0-5)",wild oat [16],0 (mortality of less than 5% (almost ineffective))
same,"H: Italian ryegrass, herbicidal effect",Italian ryegrass [17]; three weeks after application,3 (mortality of at least 40% and less than 70%)
same,"A: barnyardgrass, herbicidal effect",barnyardgrass [18]; three weeks after application,5 (mortality of 90% or above (nearly complete death))
same,"O: beadstraw, herbicidal effect",beadstraw; three weeks after application,0 (mortality of less than 5% (almost ineffective))
same,"N: common chickweed, herbicidal effect",common chickweed [19]; three weeks after application,3 (mortality of at least 40% and less than 70%)
same,"L: common lambsquater, herbicidal effect",common lambsquater [20]; three weeks after application,3 (mortality of at least 40% and less than 70%)
same,"J: common ragweed, herbicidal effect",common ragweed [21]; three weeks after application,5 (mortality of 90% or above (nearly complete death))
same,"E: giant foxtail, herbicidal effect",giant foxtail [22]; three weeks after application,5 (mortality of 90% or above (nearly complete death))
same,"D: large crabgrass, herbicidal effect",large crabgrass [23]; three weeks after application,5 (mortality of 90% or above (nearly complete death))
same,"K: redroot pigweed, herbicidal effect",redroot pigweed [24]; three weeks after application,0 (mortality of less than 5% (almost ineffective))
same,"G: water foxtail, herbicidal effect",water foxtail [25]; three weeks after application,5 (mortality of 90% or above (nearly complete death))
same,"F: wild oat, herbicidal effect",wild oat [26]; three weeks after application,0 (mortality of less than 5% (almost ineffective))
"CC1(C)CC(=O)N(Cc2ccccc2NS(=O)(=O)C(F)(F)F)CO1 [II-17, 6,6-dimethyl-3-(2-trifluoromethanesulfonylaminobenzyl)-1,3-oxazinan-4-one]","A: barnyardgrass, herbicidal effect (evaluation scale 0-5)",barnyardgrass [1],5 (mortality of 90% or above (nearly complete death))
same,"B: bulrush, herbicidal effect (evaluation scale 0-5)",bulrush [2],5 (mortality of 90% or above (nearly complete death))
same,"C: ducksalad, herbicidal effect (evaluation scale 0-5)",ducksalad [3],5 (mortality of 90% or above (nearly complete death))
same,"A: barnyardgrass, herbicidal effect (evaluation scale 0-5)",barnyardgrass [4],5 (mortality of 90% or above (nearly complete death))
same,"B: bulrush, herbicidal effect (evaluation scale 0-5)",bulrush [5],5 (mortality of 90% or above (nearly complete death))
same,"C: ducksalad, herbicidal effect (evaluation scale 0-5)",ducksalad [6],5 (mortality of 90% or above (nearly complete death))
same,"H: Italian ryegrass, herbicidal effect (evaluation scale 0-5)",Italian ryegrass [7],4 (mortality of at least 70% and less than 90%)
same,"A: barnyardgrass, herbicidal effect (evaluation scale 0-5)",barnyardgrass [8],5 (mortality of 90% or above (nearly complete death))
same,"N: common chickweed, herbicidal effect (evaluation scale 0-5)",common chickweed [9],4 (mortality of at least 70% and less than 90%)
same,"L: common lambsquater, herbicidal effect (evaluation scale 0-5)",common lambsquater [10],2 (mortality of at least 20% and less than 40%)
same,"J: common ragweed, herbicidal effect (evaluation scale 0-5)",common ragweed [11],5 (mortality of 90% or above (nearly complete death))
same,"E: giant foxtail, herbicidal effect (evaluation scale 0-5)",giant foxtail [12],5 (mortality of 90% or above (nearly complete death))
same,"D: large crabgrass, herbicidal effect (evaluation scale 0-5)",large crabgrass [13],5 (mortality of 90% or above (nearly complete death))
same,"K: redroot pigweed, herbicidal effect (evaluation scale 0-5)",redroot pigweed [14],1 (mortality of at least 5% and less than 20%)
same,"G: water foxtail, herbicidal effect (evaluation scale 0-5)",water foxtail [15],5 (mortality of 90% or above (nearly complete death))
same,"F: wild oat, herbicidal effect (evaluation scale 0-5)",wild oat [16],0 (mortality of less than 5% (almost ineffective))
same,"H: Italian ryegrass, herbicidal effect",Italian ryegrass [17]; three weeks after application,4 (mortality of at least 70% and less than 90%)
same,"A: barnyardgrass, herbicidal effect",barnyardgrass [18]; three weeks after application,5 (mortality of 90% or above (nearly complete death))
same,"O: beadstraw, herbicidal effect",beadstraw; three weeks after application,5 (mortality of 90% or above (nearly complete death))
same,"N: common chickweed, herbicidal effect",common chickweed [19]; three weeks after application,4 (mortality of at least 70% and less than 90%)
same,"L: common lambsquater, herbicidal effect",common lambsquater [20]; three weeks after application,4 (mortality of at least 70% and less than 90%)
same,"J: common ragweed, herbicidal effect",common ragweed [21]; three weeks after application,5 (mortality of 90% or above (nearly complete death))
same,"E: giant foxtail, herbicidal effect",giant foxtail [22]; three weeks after application,5 (mortality of 90% or above (nearly complete death))
same,"D: large crabgrass, herbicidal effect",large crabgrass [23]; three weeks after application,5 (mortality of 90% or above (nearly complete death))
same,"K: redroot pigweed, herbicidal effect",redroot pigweed [24]; three weeks after application,1 (mortality of at least 5% and less than 20%)
same,"G: water foxtail, herbicidal effect",water foxtail [25]; three weeks after application,5 (mortality of 90% or above (nearly complete death))
same,"F: wild oat, herbicidal effect",wild oat [26]; three weeks after application,0 (mortality of less than 5% (almost ineffective))
